# According to patent publication US20250171452A1 (Viscient Bio, Inc., priority 2022, published 2025):
# Where a name gives a salt, the structure may show the parent alone. Read-outs that look alike come from different tables or passages of the source.
# What was measured:
# IDO2 = IDO2 (Homo sapiens (Human), UniProt Q6ZQW0); assay: Cellular IDO2 assay, doxycycline and 5-methoxy-L-tryptophan medium, colorimetric; type: cell-based
# Procedure: IDO2 inhibition at the cellular level was evaluated in vitro using the following procedure.
# Using cell culture medium, the volume of the suspension was adjusted to achieve a cell concentration of 20,000 cells/well (90 uL/well).
# 5-Methoxy-L-tryptophan powder was dissolved in the culture medium to a concentration of 10 mM, then filtered and sterilized with a 0.22 um filter. Doxycycline powder was dissolved in ddH2O to a concentration of 100 ug/ml, then filtered and sterilized with a 0.22 um filter. 5-aminolevulinic acid powder was dissolved in ddH2O to a concentration of 400 mM, then filtered and sterilized with a 0.22 um filter. A 2× Assay medium was then by diluting the doxycycline (from 100 ug/ml to 2 ug/ml) and 5-Methoxy-L-tryptophan (from 10 mM to 5 mM) in culture medium. The 5-aminolevulinic acid solution was also added to the solution (diluting the concentration from 400 mM to 2 mM) to get a 2× working solution.
# After incubation, plates and reagents were allows to equilibrate to room temperature. […] Trichloroacetic acid powder was dissolved in ddH2O to prepare 6.1N trichloroacetic acid. […] The plates were incubated at 55° C. for 40 minutes, and then centrifuged for 10 min at 2500 rpm. […] Measurement of the signal was performed using Envision at 480 nm. Throughout the foregoing process, care was taken to prevent exposure to light.
# [1] = biological target: Indoleamine 2,3-dioxygenase 1 (IDO1) (Homo sapiens (Human), UniProt P14902); assay: Cellular IDO1 assay: kynurenine production in IFN-γ-stimulated HeLa cells, colorimetric
# Sequence of Indoleamine 2,3-dioxygenase 1 (IDO1) (P14902 whole entry): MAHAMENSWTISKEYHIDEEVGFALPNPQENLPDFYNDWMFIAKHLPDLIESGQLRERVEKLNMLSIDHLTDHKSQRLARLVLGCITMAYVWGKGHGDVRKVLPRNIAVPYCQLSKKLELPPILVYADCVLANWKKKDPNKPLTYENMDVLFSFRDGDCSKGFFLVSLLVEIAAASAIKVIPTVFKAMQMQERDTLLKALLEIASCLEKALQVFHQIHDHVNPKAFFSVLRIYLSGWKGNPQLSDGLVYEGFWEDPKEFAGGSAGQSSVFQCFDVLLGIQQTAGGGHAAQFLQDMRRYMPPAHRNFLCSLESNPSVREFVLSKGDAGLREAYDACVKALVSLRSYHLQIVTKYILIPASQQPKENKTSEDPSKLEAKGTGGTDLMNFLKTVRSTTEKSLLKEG
# [2] = cellular level, 72 h incubation, signal at 480 nm
# Sequence of IDO2 (Q6ZQW0 whole entry, species assumed): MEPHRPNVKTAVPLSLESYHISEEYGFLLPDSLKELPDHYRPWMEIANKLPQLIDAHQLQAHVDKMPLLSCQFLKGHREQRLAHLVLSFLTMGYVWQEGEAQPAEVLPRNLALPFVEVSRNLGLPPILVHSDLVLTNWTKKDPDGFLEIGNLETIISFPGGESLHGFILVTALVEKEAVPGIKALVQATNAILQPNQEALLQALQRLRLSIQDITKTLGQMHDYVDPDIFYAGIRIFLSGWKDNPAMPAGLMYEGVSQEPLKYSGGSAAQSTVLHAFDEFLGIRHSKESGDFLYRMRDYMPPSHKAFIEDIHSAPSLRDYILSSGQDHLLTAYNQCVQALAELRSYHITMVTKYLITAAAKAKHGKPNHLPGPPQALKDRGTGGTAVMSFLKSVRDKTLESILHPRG
Compound,IC50 (IDO2; [2]),IC50 [1],IC50 (IDO2)
"Cc1ccc2c(=O)n3c(nc2c1)C(=O)c1cc([N+](=O)[O-])ccc1-3 [Compound 1, 3-Methyl-8-nitroindolo[2,1-b]quinazoline-6,12-dione]",50 to 500 nM,< 50 nM,–
"O=C1c2cc([N+](=O)[O-])ccc2-n2c1nc1cc(F)ccc1c2=O [Compound 2, 3-Fluoro-8-nitroindolo[2,1-b]quinazoline-6,12-dione]",< 50 nM,< 50 nM,–
"N#Cc1ccc2c(c1)C(=O)c1nc3cc(Cl)ccc3c(=O)n1-2 [Compound 3, 3-Chloro-6,12-dioxo-6,12-dihydroindolo[2,1-b]quinazoline-8-carbonitrile]",< 50 nM,< 50 nM,–
"O=C(O)c1ccc2c(c1)C(=O)c1nc3cc(Cl)ccc3c(=O)n1-2 [Compound 4, 3-Chloro-6,12-dioxo-6,12-dihydroindolo[2,1-b]quinazoline-8-carboxylic Acid]",> 500 nM,> 500 nM,–
"Nc1ccc2c(c1)C(=O)c1nc3cc(Cl)ccc3c(=O)n1-2 [Compound 5, 8-Amino-3-chloroindolo[2,1-b]quinazoline-6,12-dione]",50 to 500 nM,> 500 nM,–
"COC(=O)c1ccc2c(c1)C(=O)c1nc3cc(Cl)ccc3c(=O)n1-2 [Compound 6, Methyl 3-chloro-6,12-dioxo-6,12-dihydroindolo[2,1-b]quinazoline-8-carboxylate]",50 to 500 nM,50 to 500 nM,–
"CC(=O)Nc1ccc2c(c1)C(=O)c1nc3cc(Cl)ccc3c(=O)n1-2 [Compound 7, N-(3-Chloro-6,12-dioxo-6,12-dihydroindolo[2,1-b]quinazolin-8-yl)acetamide]",50 to 500 nM,50 to 500 nM,–
"NC(=O)c1ccc2c(c1)C(=O)c1nc3cc(Cl)ccc3c(=O)n1-2 [Compound 8, 3-Chloro-6,12-dioxo-6,12-dihydroindolo[2,1-b]quinazoline-8-carboxamide]",50 to 500 nM,50 to 500 nM,–
"NCCNC(=O)c1ccc2c(c1)C(=O)c1nc3cc(Cl)ccc3c(=O)n1-2 [Compound 10, N-(2-Aminoethyl)-3-chloro-6,12-dioxo-6,12-dihydroindolo[2,1-b]quinazoline-8-carboxamide]",50 to 500 nM,> 500 nM,–
"O=C1c2cc([N+](=O)[O-])ccc2-n2c1nc1cc(F)cc(F)c1c2=O [Compound 11, 1,3-Difluoro-8-nitroindolo[2,1-b]quinazoline-6,12-dione]",–,50 to 500 nM,< 50 nM
"N#Cc1ccc2c(c1)C(=O)c1nc3cc(F)ccc3c(=O)n1-2 [Compound 12, 3-Fluoro-6,12-dioxo-6,12-dihydroindolo[2,1-b]quinazoline-8-carbonitrile]",< 50 nM,< 50 nM,–
"NS(=O)(=O)NCCNC(=O)c1ccc2c(c1)C(=O)c1nc3cc(Cl)ccc3c(=O)n1-2 [Compound 13, 3-Chloro-6,12-dioxo-N-(2-(sulfamoylamino)ethyl)-6,12-dihydroindolo[2,1-b]quinazoline-8-carboxamide]",> 500 nM,> 500 nM,–
"CS(=O)(=O)c1ccc2c(c1)C(=O)c1nc3cc(F)ccc3c(=O)n1-2 [Compound 14, 3-Fluoro-8-(methylsulfonyl)indolo[2,1-b]quinazoline-6,12-dione]",< 50 nM,50 to 500 nM,–
"CN1CCN(Cc2ccc3c(=O)n4c(nc3c2)C(=O)c2cc(F)ccc2-4)CC1 [Compound 15, 8-Fluoro-3-((4-methylpiperazin-1-yl)methyl)indolo[2,1-b]quinazoline-6,12-dione]",50 to 500 nM,50 to 500 nM,–
"Nc1ccc2c(=O)n3c(nc2c1)C(=O)c1cc([N+](=O)[O-])ccc1-3 [Compound 16, 3-Amino-8-nitroindolo[2,1-b]quinazoline-6,12-dione]",< 50 nM,50 to 500 nM,–
"CC(C)(C)OC(=O)Nc1ccc2c(=O)n3c(nc2c1)C(=O)c1cc([N+](=O)[O-])ccc1-3 [Compound 17, tert-Butyl (8-nitro-6,12-dioxo-6,12-dihydroindolo[2,1-b]quinazolin-3-yl)carbamate]",< 50 nM,50 to 500 nM,–
"O=C1c2cc(Br)ccc2-n2c1nc1cc(F)ccc1c2=O [Compound 18, 8-Bromo-3-fluoroindolo[2,1-b]quinazoline-6,12-dione]",50 to 500 nM,> 500 nM,–
"NCCNC(=O)c1ccc2c(c1)C(=O)c1nc3cc(Cl)cc(Cl)c3c(=O)n1-2 [Compound 19, N-(2-Aminoethyl)-1,3-dichloro-6,12-dioxo-6,12-dihydroindolo[2,1-b]quinazoline-8-carboxamide]",> 500 nM,> 500 nM,–
"CNC(=O)c1ccc2c(c1)C(=O)c1nc3cc(Cl)cc(Cl)c3c(=O)n1-2 [Compound 20, 1,3-Dichloro-N-methyl-6,12-dioxo-6,12-dihydroindolo[2,1-b]quinazoline-8-carboxamide]",50 to 500 nM,50 to 500 nM,–
"O=[N+]([O-])c1ccc2c(c1)C(O)C1Nc3cc(F)ccc3CN21 (stereo not drawn) [Compound 21, 3-Fluoro-8-nitro-5H,5aH,6H,12H-indolo[2,1-b]quinazolin-6-ol]",< 50 nM,< 50 nM,–
"O=C(O)c1ccc2c(c1)C(=O)c1nc3cc(Cl)cc(Cl)c3c(=O)n1-2 [Compound 22, 1,3-Dichloro-6,12-dioxoindolo[2,1-b]quinazoline-8-carboxylic Acid]",> 500 nM,> 500 nM,–

Compound,IC50 (IDO2; [2]),IC50 [1],IC50 (IDO2)
"NC(=O)c1ccc2c(c1)C(=O)c1nc3cc(Cl)cc(Cl)c3c(=O)n1-2 [Compound 23, 1,3-Dichloro-6,12-dioxoindolo[2,1-b]quinazoline-8-carboxamide]",50 to 500 nM,50 to 500 nM,–
"CN(C)C(=O)c1ccc2c(c1)C(=O)c1nc3cc(Cl)cc(Cl)c3c(=O)n1-2 [Compound 24, 1,3-Dichloro-N,N-dimethyl-6,12-dioxo-6,12-dihydroindolo[2,1-b]quinazoline-8-carboxamide]",50 to 500 nM,50 to 500 nM,–
"O=C1c2cc(C(=O)N3CCNCC3)ccc2-n2c1nc1cc(Cl)cc(Cl)c1c2=O [Compound 25, 1,3-dichloro-8-(piperazine-1-carbonyl)indolo[2,1-b]quinazoline-6,12-dione]",50 to 500 nM,50 to 500 nM,–
"CC(C)(C)OC(=O)N1CCN(C(=O)c2ccc3c(c2)C(=O)c2nc4cc(Cl)cc(Cl)c4c(=O)n2-3)CC1 [Compound 26, tert-Butyl 4-(1,3-dichloro-6,12-dioxo-6,12-dihydroindolo[2,1-b]quinazoline-8-carbonyl)piperazine-1-carboxylate]",50 to 500 nM,> 500 nM,–
NS(=O)(=O)c1ccc2c(c1)C(=O)c1nc3cc(F)ccc3c(=O)n1-2 [Compound 27],< 50 nM,50 to 500 nM,–
O=C1c2cc(SCc3ccccc3)ccc2-n2c1nc1cc(F)ccc1c2=O [Compound 28],< 50 nM,50 to 500 nM,–
"NC(=O)NCc1ccc2nc3n(c(=O)c2c1)-c1ccc(F)cc1C3=O [Compound 139, 1-((8-fluoro-6,12-dioxo-6,12-dihydroindolo[2,1-b]quinazolin-2-yl)methyl)urea]",< 50 nM,–,–
"N#C/N=C(\N)NCc1ccc2nc3n(c(=O)c2c1)-c1ccc(F)cc1C3=O [Compound 140, 2-cyano-1-((8-fluoro-6,12-dioxo-6,12-dihydroindolo[2,1-b]quinazolin-2-yl)methyl)guanidine]",< 50 nM,–,–
"O=C1c2cc(F)ccc2-n2c1nc1ccc(CNc3ccccn3)cc1c2=O [Compound 141, 8-fluoro-2-((pyridin-2-ylamino)methyl)indolo[2,1-b]quinazoline-6,12-dione]",50 to 500 nM,–,–
"CC(=O)NCc1ccc2nc3n(c(=O)c2c1)-c1ccc(F)cc1C3=O [Compound 142, N-((8-fluoro-6,12-dioxo-6,12-dihydroindolo[2,1-b]quinazolin-2-yl)methyl)acetamide]",< 50 nM,–,–
NS(=O)(=O)NCc1ccc2nc3n(c(=O)c2c1)-c1ccc(F)cc1C3=O [Compound 143],< 50 nM,–,–
"NCc1ccc2nc3n(c(=O)c2c1)-c1ccc(F)cc1C3=O [Compound 144, 2-(aminomethyl)-8-fluoroindolo[2,1-b]quinazoline-6,12-dione hydrochloride Salt]",< 50 nM,–,–
"CS(=O)(=O)NCc1ccc2nc3n(c(=O)c2c1)-c1ccc(F)cc1C3=O [Compound 145, N-((8-fluoro-6,12-dioxo-6,12-dihydroindolo[2,1-b]quinazolin-2-yl)methyl)methanesulfonamide]",< 50 nM,–,–
CO/N=C1/c2cc(F)ccc2-n2c1nc1ccc(-c3c[nH]cn3)cc1c2=O [Compound 146],< 50 nM,–,–
"N=C(N)NCc1ccc2nc3n(c(=O)c2c1)-c1ccc(F)cc1C3=O [Compound 147, 1-((8-fluoro-6,12-dioxo-6,12-dihydroindolo[2,1-b]quinazolin-2-yl)methyl)guanidine]",50 to 500 nM,–,–
"N=C(N)c1ccc2nc3n(c(=O)c2c1)-c1ccc(F)cc1C3=O [Compound 148, 8-fluoro-6,12-dioxo-6,12-dihydroindolo[2,1-b]quinazoline-2-carboximidamide]",< 50 nM,–,–
"NC(=O)c1ccc2nc3n(c(=O)c2c1)-c1ccc(F)cc1C3=O [Compound 149, 8-fluoro-6,12-dioxo-6,12-dihydroindolo[2,1-b]quinazoline-2-carboxamide]",< 50 nM,–,–
"COC(=O)c1ccc2nc3n(c(=O)c2c1)-c1ccc(F)cc1C3=O [Compound 150, methyl 8-fluoro-6,12-dioxo-6,12-dihydroindolo[2,1-b]quinazoline-2-carboxylate]",< 50 nM,–,–
"O=C1c2cc(F)ccc2-n2c1nc1ccc(-c3c[nH]cn3)cc1c2=O [Compound 151, 8-fluoro-2-(1H-imidazol-4-yl)indolo[2,1-b]quinazoline-6,12-dione]",< 50 nM,–,–
"CC1(O)c2cc(F)ccc2-n2c1nc1ccc(C#N)cc1c2=O (stereo not drawn) [Compound 152, 8-fluoro-6-hydroxy-6-methyl-12-oxo-6,12-dihydroindolo[2,1-b]quinazoline-2-carbonitrile]",> 500 nM,–,–
"O=C(O)c1ccc2nc3n(c(=O)c2c1)-c1ccc(F)cc1C3=O [Compound 153, 8-fluoro-6,12-dioxo-6,12-dihydroindolo[2,1-b]quinazoline-2-carboxylic Acid]",> 500 nM,–,–
